Experimental data reported in BigSolDB 2.1.

c1ccc2ccccc2c1
Details | solubility (mole fraction)
in acetone, 297.17 K | 0.211
in acetone, 298.11 K | 0.218
in acetone, 300.23 K | 0.233
in acetone, 301.55 K | 0.246
in acetone, 303.47 K | 0.259
in acetone, 305.14 K | 0.272
in acetone, 306.63 K | 0.285
in acetone, 307.76 K | 0.297
in acetone, 309.37 K | 0.31
in acetone, 311.03 K | 0.323
in acetone, 312.03 K | 0.335
in acetone, 312.97 K | 0.347
in acetone, 314.37 K | 0.361
in acetone, 315.74 K | 0.376
in acetone, 317.26 K | 0.394
in acetone, 319.06 K | 0.415
in acetone, 320.87 K | 0.44
in acetone, 322.7 K | 0.459
in ethanol, 304.26 K | 0.0464
in ethanol, 307.44 K | 0.0531
in ethanol, 309.53 K | 0.0566
in ethanol, 311.93 K | 0.0614
in ethanol, 314.52 K | 0.0658
in ethanol, 315.93 K | 0.0703
in ethanol, 318.07 K | 0.076
in ethanol, 319.8 K | 0.0816
in ethanol, 321.46 K | 0.0876
in ethanol, 323.45 K | 0.103
in ethanol, 325.68 K | 0.116
in ethanol, 327.32 K | 0.129
in ethanol, 329.34 K | 0.14
in ethanol, 330.43 K | 0.154
in ethanol, 332 K | 0.174
in ethanol, 333.9 K | 0.204
in ethanol, 335.9 K | 0.238
in ethanol, 337.76 K | 0.293
in ethanol, 339.76 K | 0.382
in n-butanol, 313.77 K | 0.113
in n-butanol, 315.17 K | 0.119
in n-butanol, 317.98 K | 0.139
in n-butanol, 320.74 K | 0.159
in n-butanol, 323.67 K | 0.183
in n-butanol, 325.6 K | 0.205
in n-butanol, 327.76 K | 0.228
in n-butanol, 329.03 K | 0.252
in n-butanol, 331.8 K | 0.294
in n-butanol, 333.65 K | 0.333
in n-butanol, 335.1 K | 0.375
in n-butanol, 337 K | 0.436
in n-butanol, 338.15 K | 0.477
in n-butanol, 339.63 K | 0.526
in n-butanol, 340.65 K | 0.567
in n-butanol, 342.04 K | 0.62
in n-butanol, 342.8 K | 0.66
in n-heptane, 290.25 K | 0.0595
in n-heptane, 294.3 K | 0.0705
in n-heptane, 297.85 K | 0.0798
in n-heptane, 301.37 K | 0.0889
in n-heptane, 303.04 K | 0.0978
in n-heptane, 305.3 K | 0.107
in n-heptane, 307.53 K | 0.115
in n-heptane, 309.63 K | 0.123
in n-heptane, 311.2 K | 0.133
in n-heptane, 312.6 K | 0.141
in n-heptane, 314.13 K | 0.15
in n-heptane, 315.15 K | 0.158
in n-heptane, 316.63 K | 0.168
in n-heptane, 317.65 K | 0.177
in n-heptane, 321.33 K | 0.209
in n-heptane, 324.25 K | 0.23
in n-heptane, 326.98 K | 0.265
in n-heptane, 329.45 K | 0.304
in n-heptane, 330.26 K | 0.329
in n-heptane, 331.5 K | 0.35
in n-heptane, 333.75 K | 0.389
in toluene, 291.35 K | 0.239
in toluene, 301.45 K | 0.31
in toluene, 304.54 K | 0.34
in toluene, 308.53 K | 0.374
in toluene, 311.93 K | 0.406
in toluene, 315.25 K | 0.439
in toluene, 318.55 K | 0.472
in toluene, 322.23 K | 0.503
in toluene, 324.37 K | 0.537
in toluene, 327.55 K | 0.589
in toluene, 331.35 K | 0.637
in toluene, 334.65 K | 0.677
